Assays:
[1] = Syneresis of agar-based media (Blood, Chocolate, MacConkey, Azide blood agar) after storage; assay type: physicochemical; details: 0.2% iota carrageenan plus 1 mM calcium chloride; each of four agars; 28 days at 5° C.
Experimental: In a first example, the ability of iota carrageenan to stabilize agar-based media was assessed. The media chosen for this example were used in several of the embodiments of the agar-based media of the invention listed in this application. More specifically, in this example, Blood agar, Chocolate agar, MacConkey agar, and Azide blood agar were each prepared three different ways: (1) without any additions, to serve as a control, (2) with the addition of 0.2% (final concentration) Iota Carrageenan, and (3) with the addition of 0.2% Iota Carrageenan plus 1 mM Calcium chloride. These additions were made at time of hydration as described above, and prior to autoclaving. Following the sterilization step (autoclaving), the processes of preparing blood agar, chocolate agar and azide blood agar from the base media were performed using standard microbiology methods. Defibrinated sterile sheep red blood cells and sodium azide were two of the reagents used. The complete MacConkey medium was prepared using all three ways prior to autoclaving. Each of the twelve different media were dispensed at 50° C. into four polystyrene sterile T-flasks (25 cm^2) with tight-fitting screw caps and stored for 28 days at refrigerator temperature(5° C.), at which point the amount of water of syneresis was measured. […]

[2] = Syneresis of Mueller-Hinton agar at various iota carrageenan concentrations with and without calcium; assay type: physicochemical; details: 1 mM calcium added; media with 0.4%, 0.6% and 0.8% iota carrageenan
Experimental: In a second example, research was conducted to determine the ability of iota carrageenan to stabilize agar gels at a variety of concentrations of carrageenan with and without calcium. The results of this research are summarized in the tables of FIG. 41A entitled: “The Effect of Iota Carrageenan, Without Added Calcium, on Syneresis of Mueller-Hinton Agar,” and in FIG. 42A, entitled: “The Effect of Iota Carrageenan, with 1 mM added Calcium, on Syneresis of Mueller-Hinton Agar. The graphs associated with the above two figures found in FIG. 41B and 42B pictorially illustrate the syneresis-reducing-effect of iota carrageenan and the synergistic effects of adding calcium with certain concentrations of iota carrageenan

Compound: [Ca+2].[Cl-].[Cl-] [calcium, Calcium chloride]
- amount of water of syneresis, effect of adding calcium to carrageenan media [1]: further reduced the amount of syneresis
- syneresis of Mueller-Hinton agar, effect of adding calcium [2]: effect of adding calcium is also apparent

Source: US7018828B1, “Microbial culture medium containing agar and iota carrageenan” (priority 2001, dated 2006)
